Reference: the NIST ThermoML archive (doi:10.1021/je9010129)

Experiment: refractive index (Na D-line) (dimensionless); mn = molality of the nth substance listed, in mol/kg
Details: 101 kPa, Liquid, Standard Abbe refractometry

N.N.O=S(=O)(O)O [ammonium sulfate] + O
refractive index
Details | 288.15 K | 298.15 K | 308.15 K | 318.15 K
m1 = 0.2725 | 1.33934 | 1.33813 | 1.33696 | 1.33544
m1 = 0.3995 | 1.34174 | 1.3408 | 1.33941 | 1.33806
m1 = 0.4876 | 1.34348 | 1.34227 | 1.34098 | 1.33956
m1 = 0.8025 | 1.34905 | 1.34798 | 1.3467 | 1.34521
m1 = 1.198 | 1.35554 | 1.35434 | 1.353 | 1.35156
m1 = 1.604 | 1.3614 | 1.36025 | 1.35888 | 1.3574
m1 = 1.992 | 1.36659 | 1.36535 | 1.36402 | 1.36252
m1 = 2.381 | 1.37134 | 1.37008 | 1.36878 | 1.36733
m1 = 2.801 | 1.37588 | 1.37472 | 1.37338 | 1.37211
m1 = 3.2 | 1.38006 | 1.37873 | 1.37738 | 1.37611
m1 = 3.619 | 1.38383 | 1.38259 | 1.38126 | 1.38009
m1 = 3.997 | 1.38708 | 1.38596 | 1.38446 | 1.38325
m1 = 4.396 | 1.39018 | 1.38897 | 1.3876 | 1.38647
m1 = 4.763 | 1.39286 | 1.3917 | 1.39031 | 1.38922
m1 = 5.181 | 1.3957 | 1.39451 | 1.3932 | 1.39197
m1 = 5.6 | 1.39836 | 1.39715 | 1.39584 | 1.39461
m1 = 5.876 | – | – | 1.3975 | 1.39618
m1 = 6.328 | – | – | – | 1.3983

O [water] + N.N.O=S(=O)(O)O
m2 = 0
Details | refractive index
288.15 K | 1.33339
298.15 K | 1.33248
308.15 K | 1.33128
318.15 K | 1.32979

O=S(=O)([O-])[O-].[Na+].[Na+] [sodium sulfate] + O
refractive index
Details | 288.15 K | 298.15 K | 308.15 K | 318.15 K
m1 = 0.1002 | 1.33566 | 1.33473 | 1.33342 | 1.33185
m1 = 0.1938 | 1.33757 | 1.33653 | 1.33518 | 1.33378
m1 = 0.477 | 1.34311 | 1.34187 | 1.34052 | 1.33896
m1 = 0.7055 | 1.34719 | 1.34585 | 1.34434 | 1.34278
m1 = 0.8578 | 1.34983 | 1.34855 | 1.34695 | 1.34531
m1 = 0.9866 | – | 1.35058 | 1.34904 | 1.34742
m1 = 1.206 | – | 1.35377 | 1.3522 | 1.35057
m1 = 1.59 | – | 1.35915 | 1.35746 | 1.35598
m1 = 1.727 | – | 1.36096 | 1.35931 | 1.35778
m1 = 1.992 | – | – | 1.36271 | 1.36102
m1 = 2.237 | – | – | 1.36573 | 1.36396
m1 = 2.532 | – | – | 1.36884 | 1.36711
m1 = 2.681 | – | – | 1.37046 | 1.36857
m1 = 2.805 | – | – | 1.37172 | 1.36992
m1 = 3.053 | – | – | 1.37411 | 1.37246
m1 = 3.219 | – | – | 1.37569 | 1.37386
m1 = 3.305 | – | – | 1.37649 | 1.3747
m1 = 3.423 | – | – | 1.37756 | –

O=S(=O)([O-])[O-].[K+].[K+] [potassium sulfate] + O
refractive index
Details | 288.15 K | 298.15 K | 308.15 K | 318.15 K
m1 = 0.0456 | 1.33447 | 1.33359 | 1.33228 | 1.33072
m1 = 0.1387 | 1.33636 | 1.33552 | 1.33411 | 1.33251
m1 = 0.2502 | 1.33866 | 1.33771 | 1.33625 | 1.33466
m1 = 0.3409 | 1.34035 | 1.33945 | 1.33786 | 1.33626
m1 = 0.4174 | 1.34183 | 1.34071 | 1.33927 | 1.33763
m1 = 0.503 | 1.3433 | 1.34227 | 1.34077 | 1.33906
m1 = 0.5093 | 1.34341 | 1.3423 | 1.34084 | 1.3392
m1 = 0.5703 | 1.34451 | 1.34337 | 1.34186 | 1.34022
m1 = 0.6509 | – | 1.34476 | 1.34324 | 1.34151
m1 = 0.7435 | – | – | 1.34478 | 1.34301
m1 = 0.8106 | – | – | – | 1.34404
m1 = 0.8605 | – | – | – | 1.34488
m1 = 0.9049 | – | – | – | 1.34557

O [water] + O=S(=O)([O-])[O-].[Na+].[Na+]
m2 = 0
Details | refractive index
288.15 K | 1.33339
298.15 K | 1.33248
308.15 K | 1.33128
318.15 K | 1.32979

O [water] + O=S(=O)([O-])[O-].[K+].[K+]
m2 = 0
Details | refractive index
288.15 K | 1.33339
298.15 K | 1.33248
308.15 K | 1.33128
318.15 K | 1.32979
